The record followed here is patent publication US8946166B2, “Peptide-based compounds and compositions which inhibit muscle contraction” (Lipotec, S.A., priority 2009, dated 2015).

One assay relates to AChR clusters. Nature of the assay: AChR clustering inhibition trial (agrin-induced AChR clusters in myotubes, α-bungarotoxin-tetramethylrhodamine staining, confocal quantification). Format: cell-based. The following applies: peptide 10 μM; mouse myotubes; normalized to basal values of the medium.
For “Ac-L-Asp-L-Asp-L-Tyr-L-Tyr-L-Arg-L-Met-NH2”, the “Percentage of AChR cluster inhibition” value turned out to be 31.3%.
Take “Palm-L-Pro-L-Asp-L-Tyr-L-Tyr-L-Lys-L-Leu-NH2”: the “Percentage of AChR cluster inhibition” value amounted to 33.7%.
On to “Ac-L-Asp-L-Asp-L-Tyr-L-Tyr-L-Lys-L-Met-NH2”, for which the “Percentage of AChR cluster inhibition” value was determined as 21.5%.
Still for that read-out and setting: under “Ac-L-Glu-L-Asp-L-Arg-L-Phe-L-Lys-L-Leu-NH2” stands 23.7%; under “Ac-L-Asp-L-Asp-L-Tyr-L-Phe-L-Arg-L-Leu-NH2”, 33.8%.
For “Ac-L-Pro-L-Asp-L-Tyr-L-Tyr-L-Arg-L-Met-NH2”, the “Percentage of AChR cluster inhibition” value stood at 61.1%.
Consider “Ac-L-Glu-L-Asp-L-Arg-L-Phe-L-Arg-L-Leu-NH2”, for which the “Percentage of AChR cluster inhibition” value worked out at 20.8%.
Consider “Ac-L-Glu-L-Asp-L-Tyr-L-Tyr-L-Arg-L-Leu-NH2”, for which the “Percentage of AChR cluster inhibition” value came out at 57.1%.
As for “Ac-L-Pro-L-Asp-L-Arg-L-Phe-L-Lys-L-Leu-NH2”, the “Percentage of AChR cluster inhibition” value is listed as 46.1%.
In the case of “Ac-L-Pro-L-Asp-L-Tyr-L-Tyr-L-Lys-L-Met-NH2”, the “Percentage of AChR cluster inhibition” value is 40.7%.
The same measure, in the same setting: under “Ac-L-Pro-L-Asp-L-Tyr-L-Phe-L-Lys-L-Leu-NH2” stands 27.8%; under “H-L-Glu-L-Asp-L-Arg-L-Phe-L-Arg-L-Met-NH2”, 25.6%.
Turning to “Ac-L-Pro-L-Asp-L-Tyr-L-Tyr-L-Arg-L-Leu-NH2”, the “Percentage of AChR cluster inhibition” value was 51.9%.
Consider “Ac-L-Glu-L-Asp-L-Tyr-L-Phe-L-Arg-L-Leu-NH2”, for which the “Percentage of AChR cluster inhibition” value came to 30.8%.
On to “Palm-L-Glu-L-Asp-L-Tyr-L-Tyr-L-Arg-L-Leu-NH2”, for which the “Percentage of AChR cluster inhibition” value stood at 34.8%.

Still in this assay, the particulars now being: peptide 100 μM; mouse myotubes; normalized to basal values of the medium.
Regarding “Ac-L-Pro-L-Asp-L-Tyr-L-Tyr-L-Lys-L-Leu-NH2”, the “Percentage of AChR cluster inhibition” value was found to be 36.7%.
As for “Palm-L-Glu-L-Asp-L-Tyr-L-Tyr-L-Arg-L-Met-NH2”, the “Percentage of AChR cluster inhibition” value amounted to 68.5%.
For “Ac-L-Glu-L-Asp-L-Arg-L-Phe-L-Arg-L-Met-OH”, the “Percentage of AChR cluster inhibition” value worked out at 39.1%.
Still for that read-out and setting: next, “Ac-L-Glu-L-Asp-L-Arg-L-Tyr-L-Arg-L-Leu-NH2”: 24.5%; “Ac-L-Pro-L-Asp-L-Arg-L-Tyr-L-Lys-L-Leu-NH2”: 43.6%; “Ac-L-Pro-L-Asp-L-Arg-L-Tyr-L-Arg-L-Leu-NH2”: 40.2%.
For “Ac-L-Pro-L-Asp-L-Tyr-L-Phe-L-Arg-L-Leu-NH—(CH2)15—CH3”, the “Percentage of AChR cluster inhibition” value is 27.8%.
Turning to “Ac-L-Glu-L-Asp-L-Arg-L-Phe-L-Arg-L-Met-NH2”, the “Percentage of AChR cluster inhibition” value is reported as 55.1%.
On to “Ac-L-Glu-L-Asp-L-Tyr-L-Phe-L-Arg-L-Leu-OH”, for which the “Percentage of AChR cluster inhibition” value came to 33.8%.
